# Results from PubChem BioAssay AID330 (DTP/NCI, 2004).
# Where “and” joins values, the source holds several entries; their conditions need not be identical. Identical values can stand only once. Toxic doses and inconclusive results are not listed.
# System: P388 leukemia ip, CD2F1 mice, survival T/C
# Assay: NCI In Vivo Anticancer Drug Screen. Data for tumor model P388 Leukemia (intraperitoneal) in CD2F1 (CDF1) mice
# Settings: endpoint: median survival time, higher = longer survival
# Method in brief: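 Mice carrying the transplanted tumor received test compound or vehicle. Survival was recorded in each group, and the value is the treated-group measurement divided by that of the vehicle-treated control group.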
# [1] = dose: 12.5 mg/kg/injection, schedule: Q01DX009 (ip), vehicle: Klucel (hydroxypropylcellulose) (HPC)
# [2] = dose: 50.0 mg/kg/injection, schedule: Q01DX009 (ip), vehicle: Klucel (hydroxypropylcellulose) (HPC)
# [3] = dose: 100.0 mg/kg/injection, schedule: Q01DX009 (ip), vehicle: saline with Tween-80
# [4] = dose: 200.0 mg/kg/injection, schedule: Q01DX009 (ip), vehicle: saline with Tween-80
# [5] = dose: 60.0 mg/kg/injection, schedule: Q01DX005 (ip), vehicle: saline with Tween-80
# [6] = dose: 120.0 mg/kg/injection, schedule: Q01DX005 (ip), vehicle: saline with Tween-80
# [7] = dose: 240.0 mg/kg/injection, schedule: Q01DX005 (ip), vehicle: saline with Tween-80
# [8] = dose: 50.0 mg/kg/injection, schedule: Q01DX005 (ip), vehicle: Klucel (hydroxypropylcellulose) (HPC)
# [9] = dose: 50.0 mg/kg/injection, schedule: Q01DX009 (ip), vehicle: saline
# [10] = dose: 100.0 mg/kg/injection, schedule: Q01DX009 (ip), vehicle: saline
# [11] = dose: 200.0 mg/kg/injection, schedule: Q01DX009 (ip), vehicle: saline
# [12] = dose: 400.0 mg/kg/injection, schedule: Q01DX009 (ip), vehicle: saline
compound,measurement,setting,value
NCCc1cc(=O)[nH]o1,T/C,"dose: 50.0 mg/kg/injection, schedule: Q01DX009 (ip), vehicle: suspension in saline",90 % of control
same,T/C,"dose: 100.0 mg/kg/injection, schedule: Q01DX009 (ip), vehicle: suspension in saline",90 % of control
same,T/C,"dose: 200.0 mg/kg/injection, schedule: Q01DX009 (ip), vehicle: suspension in saline",91 % of control
CNC1CCCCC1[N+](C)(C)C (stereo unspecified),T/C,"dose: 5.0 mg/kg/injection, schedule: Q01DX009 (ip), vehicle: saline sonified",95 % of control
same,T/C,"dose: 10.0 mg/kg/injection, schedule: Q01DX009 (ip), vehicle: saline sonified",100 % of control
same,T/C,"dose: 20.0 mg/kg/injection, schedule: Q01DX009 (ip), vehicle: saline sonified",100 % of control
O=S(=O)(Cl)CCCCS(=O)(=O)Cl,T/C,[1],103 % of control
same,T/C,"dose: 25.0 mg/kg/injection, schedule: Q01DX009 (ip), vehicle: Klucel (hydroxypropylcellulose) (HPC)",91 % of control
same,T/C,[2],99 % of control and 101 % of control
CCCCCCC(/C=C/c1ccc(Cl)c(Cl)c1)=N\Nc1c(F)c(F)c(F)c(F)c1F,T/C,"dose: 50.0 mg/kg/injection, schedule: Q01DX009 (ip), vehicle: saline with Tween-80",86 % of control
same,T/C,[3],99 % of control
same,T/C,[4],98 % of control
C=C1C(=O)OC2C/C(C)=C/CC/C(C)=C/CCC3(C)OC3CC12 (stereo unspecified),T/C,"dose: 4.0 mg/kg/injection, schedule: Q01DX009 (ip), vehicle: Klucel (hydroxypropylcellulose) (HPC)",104 % of control
same,T/C,"dose: 8.0 mg/kg/injection, schedule: Q01DX009 (ip), vehicle: Klucel (hydroxypropylcellulose) (HPC)",104 % of control
same,T/C,"dose: 16.0 mg/kg/injection, schedule: Q01DX009 (ip), vehicle: Klucel (hydroxypropylcellulose) (HPC)",108 % of control
same,T/C,"dose: 32.0 mg/kg/injection, schedule: Q01DX009 (ip), vehicle: Klucel (hydroxypropylcellulose) (HPC)",105 % of control
Cc1ccc(S(=O)(=O)NC(CSCc2ccccc2)C(=O)O)cc1 (stereo unspecified),T/C,"dose: 100.0 mg/kg/injection, schedule: Q04DX003 (ip), vehicle: saline with Tween-80",100 % of control
same,T/C,"dose: 200.0 mg/kg/injection, schedule: Q04DX003 (ip), vehicle: saline with Tween-80",100 % of control
same,T/C,"dose: 400.0 mg/kg/injection, schedule: Q04DX003 (ip), vehicle: saline with Tween-80",100 % of control
CN(C(=O)Nc1cccc2c(NC(=O)N(C)C3CCCCC3)cccc12)C1CCCCC1,T/C,[5],93 % of control
same,T/C,[6],87 % of control
same,T/C,[7],90 % of control
C=C1C(=O)O[C@@H]2C[C@@]3(C)CC(=O)C=C(C)[C@@H]3C[C@H]12,T/C,"dose: 6.25 mg/kg/injection, schedule: Q04DX003 (ip), vehicle: saline with Tween-80",108 % of control
same,T/C,"dose: 12.5 mg/kg/injection, schedule: Q04DX003 (ip), vehicle: saline with Tween-80",104 % of control
same,T/C,"dose: 25.0 mg/kg/injection, schedule: Q04DX003 (ip), vehicle: saline with Tween-80",108 % of control
same,T/C,"dose: 50.0 mg/kg/injection, schedule: Q04DX003 (ip), vehicle: saline with Tween-80",100 % of control
Nc1ccccc1SSc1ccccc1C(=O)O,T/C,[8],112 % of control
same,T/C,"dose: 100.0 mg/kg/injection, schedule: Q01DX005 (ip), vehicle: Klucel (hydroxypropylcellulose) (HPC)",112 % of control
O=C(CNC(=O)NCc1ccco1)NNC(=O)Nc1ccc(Cl)c([N+](=O)[O-])c1,T/C,[5],95 % of control
same,T/C,[6],94 % of control
same,T/C,[7],97 % of control
C/C=C1/CN2CCC34c5ccccc5N(C)C23C2CC1C4(C(=O)OC)C(OC(C)=O)O2 (stereo unspecified),T/C,"dose: 9.25 mg/kg/injection, schedule: Q01DX005 (ip), vehicle: saline + Tween-80 + alcohol",96 % of control
same,T/C,"dose: 18.5 mg/kg/injection, schedule: Q01DX005 (ip), vehicle: saline + Tween-80 + alcohol",106 % of control
same,T/C,"dose: 37.0 mg/kg/injection, schedule: Q01DX005 (ip), vehicle: saline + Tween-80 + alcohol",112 % of control
same,T/C,"dose: 74.0 mg/kg/injection, schedule: Q01DX005 (ip), vehicle: saline + Tween-80 + alcohol",100 % of control
COc1cc(N=Nc2ccc([N+](=O)[O-])cc2)c([OH+]C)cc1[N+]#N.COc1cc(N=Nc2ccc([N+](=O)[O-])cc2)c([OH+]C)cc1[N+]#N.[Cl][Zn][Cl],T/C,[9],110 % of control and 112 % of control and 117 % of control
same,T/C,[10],111 % of control and 117 % of control and 119 % of control
same,T/C,[11],116 % of control and 119 % of control
same,T/C,[12],107 % of control
Nc1ccc(N(CCCl)CCN(CCCl)c2ccc(N)cc2)cc1,T/C,"dose: 0.8 mg/kg/injection, schedule: Q01DX009 (ip), vehicle: saline sonified",176 % of control
same,T/C,"dose: 1.2 mg/kg/injection, schedule: Q01DX009 (ip), vehicle: saline sonified",209 % of control
same,T/C,"dose: 1.25 mg/kg/injection, schedule: Q01DX009 (ip), vehicle: saline",177 % of control
same,T/C,"dose: 2.5 mg/kg/injection, schedule: Q01DX009 (ip), vehicle: saline",122 % of control
same,T/C,"dose: 5.0 mg/kg/injection, schedule: Q01DX009 (ip), vehicle: saline",90 % of control
same,T/C,"dose: 5.0 mg/kg/injection, schedule: Q04DX003 (ip), vehicle: saline with Tween-80",118 % of control
Nc1ncn[nH]1,T/C,[9],99 % of control and 105 % of control
same,T/C,[10],98 % of control and 97 % of control
same,T/C,[11],100 % of control and 106 % of control
same,T/C,[12],99 % of control
COc1ccc(C(=O)O)c(N)c1,T/C,[3],90 % of control
same,T/C,[4],95 % of control
same,T/C,"dose: 400.0 mg/kg/injection, schedule: Q01DX009 (ip), vehicle: saline with Tween-80",109 % of control
O=C(COc1ccc(Cl)cc1Cl)NCCN1CCCCC1,T/C,[2],107 % of control
same,T/C,"dose: 100.0 mg/kg/injection, schedule: Q01DX009 (ip), vehicle: Klucel (hydroxypropylcellulose) (HPC)",100 % of control
same,T/C,"dose: 200.0 mg/kg/injection, schedule: Q01DX009 (ip), vehicle: Klucel (hydroxypropylcellulose) (HPC)",100 % of control
COC(=O)[C@@H]1C(=O)[C@H](C(=O)OC)C2CCCC3CCCC1N32 (stereo partly specified),T/C,"dose: 50.0 mg/kg/injection, schedule: Q01DX005 (ip), vehicle: saline with Tween-80",98 % of control
same,T/C,"dose: 100.0 mg/kg/injection, schedule: Q01DX005 (ip), vehicle: saline with Tween-80",98 % of control
COc1cc2ccc3c(c2cc1OC)CNCC3,T/C,[9],100 % of control
same,T/C,[10],100 % of control
C=CCC(NC(=O)CCl)C(=O)O (stereo unspecified),T/C,[9],92 % of control
same,T/C,[10],90 % of control
O=C(O)c1cocc1C(=O)N1Cc2cc3ccccc3nc2C1,T/C,"dose: 8.0 mg/kg/injection, schedule: Q01DX009 (ip), vehicle: saline with Tween-80",94 % of control
same,T/C,"dose: 16.0 mg/kg/injection, schedule: Q01DX009 (ip), vehicle: saline with Tween-80",92 % of control
same,T/C,"dose: 32.0 mg/kg/injection, schedule: Q01DX009 (ip), vehicle: saline with Tween-80",94 % of control
same,T/C,"dose: 64.0 mg/kg/injection, schedule: Q01DX009 (ip), vehicle: saline with Tween-80",108 % of control
same,T/C,"dose: 128.0 mg/kg/injection, schedule: Q01DX009 (ip), vehicle: saline with Tween-80",103 % of control
COc1ccc(/C(O)=C/c2nc3ccc(Cl)cc3[nH]c2=O)cc1,T/C,"dose: 60.0 mg/kg/injection, schedule: Q01DX005 (ip), vehicle: Klucel (hydroxypropylcellulose) (HPC)",101 % of control
same,T/C,"dose: 120.0 mg/kg/injection, schedule: Q01DX005 (ip), vehicle: Klucel (hydroxypropylcellulose) (HPC)",99 % of control
same,T/C,"dose: 240.0 mg/kg/injection, schedule: Q01DX005 (ip), vehicle: Klucel (hydroxypropylcellulose) (HPC)",91 % of control
CCNC(C)(C)C(SSSC(c1ccc(Cl)cc1)C(C)(C)NCC)c1ccc(Cl)cc1 (stereo unspecified),T/C,"dose: 6.25 mg/kg/injection, schedule: Q01DX009 (ip), vehicle: saline",109 % of control
same,T/C,"dose: 12.5 mg/kg/injection, schedule: Q01DX009 (ip), vehicle: saline",115 % of control
same,T/C,"dose: 25.0 mg/kg/injection, schedule: Q01DX009 (ip), vehicle: saline",105 % of control
same,T/C,[9],101 % of control
O=C1C=C(C2=CC(=O)c3cccc(O)c3C2=O)C(=O)c2c(O)cccc21,T/C,"dose: 6.25 mg/kg/injection, schedule: Q01DX009 (ip), vehicle: Klucel (hydroxypropylcellulose) (HPC)",115 % of control
same,T/C,[1],115 % of control
Cc1ccc[n+](Cc2ccccc2Cl)c1,T/C,"dose: 12.5 mg/kg/injection, schedule: Q01DX005 (ip), vehicle: Klucel (hydroxypropylcellulose) (HPC)",113 % of control
same,T/C,"dose: 25.0 mg/kg/injection, schedule: Q01DX005 (ip), vehicle: Klucel (hydroxypropylcellulose) (HPC)",113 % of control
same,T/C,[8],101 % of control
CCOC(=O)C1C(CCC#N)C(=O)CCC1(C#N)c1ccccc1 (stereo unspecified),T/C,"dose: 100.0 mg/kg/injection, schedule: Q01DX001 (ip), vehicle: saline",105 % of control
same,T/C,"dose: 200.0 mg/kg/injection, schedule: Q01DX001 (ip), vehicle: saline",100 % of control
same,T/C,"dose: 400.0 mg/kg/injection, schedule: Q01DX001 (ip), vehicle: saline",105 % of control
